Measured values from paper PMC9892044, “Synthesis of new diphenyl urea-clubbed imine analogs and its Implications in diabetic management through in vitro and in silico approaches” (Scientific Reports, 2023).

A melting point of 208 to 210 °C was found for `COc1cccc(/C=N/c2ccccc2NC(=O)Nc2cccc(Cl)c2)c1O` [Compound 3l, (E)-1-(3-chlorophenyl)-3-(2-((2-hydroxy-3-methoxybenzylidene)amino)phenyl) urea] in this work.
A melting point of 201 to 203 °C was found for `COc1cccc(/C=N/c2ccccc2NC(=O)Nc2cccc(C)c2)c1O` [Compound 3s, (E)-1-(2-((2-hydroxy-3-methoxybenzylidene)amino)phenyl)-3-(m-tolyl) urea] in this work.
A melting point of 200 to 201 °C was found for `COc1cccc(/C=N/c2ccccc2NC(=O)Nc2cccc(F)c2)c1O` [Compound 3n, (E)-1-(3-fluorophenyl)-3-(2-((2-hydroxy-3-methoxybenzylidene)amino)phenyl) urea] in this work.
A melting point of 218 to 220 °C was found for `CCOc1cccc(/C=N/c2ccccc2NC(=O)Nc2ccc(Cl)cc2)c1O` [Compound 3f, (E)-1-(4-chlorophenyl)-3-(2-((3-ethoxy-2-hydroxybenzylidene)amino)phenyl) urea] in this work.
A melting point of 200 to 202 °C was found for `COc1cc(/C=N/c2ccccc2NC(=O)Nc2ccccc2C)ccc1O` [Compound 3x, (E)-1-(2-((4-hydroxy-3-methoxybenzylidene)amino)phenyl)-3-(o-tolyl) urea] in this work.
A melting point of 228 to 230 °C was found for `CCOc1cccc(/C=N/c2ccccc2NC(=O)Nc2ccc3ccccc3c2)c1O` [Compound 3d, (E)-1-(2-((3-ethoxy-2-hydroxybenzylidene)amino)phenyl)-3-(naphthalen-2-yl) urea] in this work.
A melting point of 218 to 220 °C was found for `CCOc1cccc(/C=N/c2ccccc2NC(=O)Nc2cccc(Cl)c2)c1O` [Compound 3a, (E)-1-(3-chlorophenyl)-3-(2-((3-ethoxy-2-hydroxybenzylidene)amino)phenyl) urea] in this work.
A melting point of 218 to 220 °C was found for `COc1cccc(/C=N/c2ccccc2NC(=O)Nc2ccc(Cl)cc2)c1O` [Compound 3q, (E)-1-(4-chlorophenyl)-3-(2-((2-hydroxy-3-methoxybenzylidene)amino)phenyl) urea] in this work.
A melting point of 214 to 216 °C was found for `COc1cccc(/C=N/c2ccccc2NC(=O)Nc2ccc3ccccc3c2)c1O` [Compound 3o, (E)-1-(2-((2-hydroxy-3-methoxybenzylidene)amino)phenyl)-3-(naphthalen-2-yl) urea] in this work.
A melting point of 217 to 219 °C was found for `CCOc1cccc(/C=N/c2ccccc2NC(=O)Nc2ccc(F)cc2)c1O` [Compound 3b, (E)-1-(2-((3-ethoxy-2-hydroxybenzylidene)amino)phenyl)-3-(4-fluorophenyl) urea] in this work.
A melting point of 210 to 212 °C was found for `CCOc1cccc(/C=N/c2ccccc2NC(=O)Nc2ccc(C)cc2)c1O` [Compound 3i, (E)-1-(2-((3-ethoxy-2-hydroxybenzylidene)amino)phenyl)-3-(p-tolyl)urea] in this work.
A melting point of 204 to 206 °C was found for `CCOc1cccc(/C=N/c2ccccc2NC(=O)Nc2ccc(OC)cc2)c1O` [Compound 3e, (E)-1-(2-((3-ethoxy-2-hydroxybenzylidene)amino)phenyl)-3-(4-methoxyphenyl) urea] in this work.
A melting point of 200 to 212 °C was found for `COc1cccc(/C=N/c2ccccc2NC(=O)Nc2ccc(C(C)=O)cc2)c1O` [Compound 3v, (E)-1-(4-acetylphenyl)-3-(2-((2-hydroxy-3-methoxybenzylidene)amino)phenyl) urea] in this work.
A melting point of 216 to 218 °C was found for `CCOc1cccc(/C=N/c2ccccc2NC(=O)Nc2ccccc2C)c1O` [Compound 3g, (E)-1-(2-((3-ethoxy-2-hydroxybenzylidene)amino)phenyl)-3-(o-tolyl) urea] in this work.
A melting point of 203 to 205 °C was found for `CCOc1cccc(/C=N/c2ccccc2NC(=O)Nc2cccc(C)c2)c1O` [Compound 3h, (E)-1-(2-((3-ethoxy-2-hydroxybenzylidene)amino)phenyl)-3-(m-tolyl) urea] in this work.
A melting point of 219 to 221 °C was found for `COc1cc(/C=N/c2ccccc2NC(=O)Nc2ccc(Cl)cc2)ccc1O` [Compound 3w, (E)-1-(4-chlorophenyl)-3-(2-((4-hydroxy-3-methoxybenzylidene)amino)phenyl) urea] in this work.
A melting point of 188 to 190 °C was found for `COc1cccc(/C=N/c2ccccc2NC(=O)Nc2ccccc2)c1O` [Compound 3u, (E)-1-(2-((2-hydroxy-3-methoxybenzylidene)amino)phenyl)-3-phenylurea] in this work.
